Measurements as given in patent US20260345527A1 (priority 2022, published 2026).
Where two headings read alike, the source gives them in different places.

Columns and labels:
TDP-43 protein = assay: inhibition of TDP-43 protein aggregation in SH-SY5Y cells (summary statements)
HSPB8 = assay: protein expression of chaperone HSPB8 in SH-SY5Y cells
[1] = system: HSPB8 (Heat Shock Protein Family B (Small) Member 8); details: sh-sy5y cells, 24 h
TDP-43 [2] = assay: TDP-43 aggregation (TDP-43 aggregation kit) in H2O2-treated SH-SY5Y cells
TDP-25 = assay: intracellular localization of TDP-25 in SH-SY5Y cells transfected with GFP-TDP-25 (fluorescence microscopy)
Text: (§1) In FIG. 4, blue fluorescence indicates the nucleus with DAPI, and green fluorescence indicates TDP-25 with GFP.
(§2) To construct an aggregation model of TDP-43 protein in the SH-SY5Y cells, which are human neuroblastoma cell lines, a GFP-TDP-25 plasmid was transfected into cells, and it may be confirmed that the transfected GFP-TPD-25 (GFP: green fluorescent protein) is present in the cytoplasm.

TDP-43 [3] = assay: TDP-43 aggregation in cytoplasm by immunofluorescence staining and fluorescence microscopy in H2O2-treated SH-SY5Y cells
ALS = details: approved ALS therapeutics, background; cited from earlier work
insoluble TDP-43 = assay: expression of insoluble TDP-43 in GFP-TDP-25 TDP-43 aggregation model of SH-SY5Y cells; details: GFP-TDP-25 transfected cells; metformin (5 mM), colchicine (1000 nM) alone or in combination; FIG. 4 B and C
Text: as §1, §2

COc1cc2c(c(OC)c1OC)-c1ccc(OC)c(=O)cc1[C@@H](NC(C)=O)CC2 [colchicine]
increase of MAP1LC3A mRNA expression (MAP1LC3A; sh-sy5y cells, 24 h): 2-3 times | reduction/inhibition of TDP-43 aggregation (summary) (TDP-43 protein): hardly reduced | change in HSPB8 protein expression (HSPB8): inadequate change | increase in HSPB8 mRNA expression [1]: approximately 2 fold | effect on hydrogen peroxide-induced TDP-43 aggregation (TDP-43 [2]): slight effect | increase of TFEB mRNA expression (TFEB; sh-sy5y cells, 24 h): 2-3 times | effect on TDP-25 accumulation in the cytoplasm (TDP-25): did not affect | effect on TDP-43 aggregation in the cytoplasm (TDP-43 [3]): did not inhibit | increase of SQSTM1/p62 mRNA expression (SQSTM1/p62; sh-sy5y cells, 24 h): 2-3 times

Nc1nc2ccc(OC(F)(F)F)cc2s1 [Riluzole]
effect on life expectancy or disease progression in ALS patients (ALS): help extend life expectancy in patients by several months or delay the progression of the disease at an early stage | therapeutic effect in ALS (ALS): only a symptom-relieving effect

OO [hydrogen peroxide (H2O2), hydrogen peroxide]
induction of abnormal aggregation of TDP-43 (TDP-43 [2]; 1 mM hydrogen peroxide, 1 hour, FIG. 2): significantly induced abnormal aggregation of TDP-43 | induction of TDP-43 aggregation in the cytoplasm (TDP-43 [3]; 1 mM hydrogen peroxide, 1 hour, FIG. 3 A and B): significantly induced TDP-43 aggregation in the cytoplasm

CC1=NN(c2ccccc2)C(=O)C1 [Edaravone]
effect on life expectancy or disease progression in ALS patients (ALS): help extend life expectancy in patients by several months or delay the progression of the disease at an early stage | therapeutic effect in ALS (ALS): only a symptom-relieving effect

CN(C)C(=N)N=C(N)N [metformin]
MAP1LC3A mRNA expression (MAP1LC3A; metformin alone, 0.1-5 mM, 24 hours, FIG. 7): no effect | reduction/inhibition of TDP-43 aggregation (summary) (TDP-43 protein; colchicine alone, metformin alone, or in combination): hardly reduced | change in HSPB8 protein expression (HSPB8; metformin (5 mM) alone or colchicine (1000 nM) alone, FIG. 1 D): inadequate change | effect on expression of insoluble TDP-43 (insoluble TDP-43): slightly reduced | effect on hydrogen peroxide-induced TDP-43 aggregation (TDP-43 [2]; 24 h drug, then 1 mM H2O2 for 1 hour, metformin 0.1-5 mM, colchicine 1-1000 nM, alone or in combination, FIG. 2): did not have a significant effect | TFEB mRNA expression (TFEB; metformin alone, 0.1-5 mM, 24 hours, FIG. 5): no effect | effect on TDP-25 accumulation in the cytoplasm (TDP-25; GFP-TDP-25 transfected cells, drugs alone or in combination, FIG. 4 A): did not affect | effect on TDP-43 aggregation in the cytoplasm (TDP-43 [3]; hydrogen peroxide-treated cells, drugs alone or in combination, FIG. 3 A and B): did not inhibit | SQSTM1/p62 mRNA expression (SQSTM1/p62; metformin alone, 0.1-5 mM, 24 hours, FIG. 6): no effect
